The record followed here is patent US7417054B2, “Naphthyridine compounds” (Janssen Pharmaceutica N.V., priority 2005, dated 2008).

Assay [1] deals with T1, human H3 receptor (Homo sapiens, UniProt Q9Y5N1).
T1 construct: expressed in transfected cells; host or cells: SK-N-MC cells
As to the kind of experiment: H3 receptor binding, N-[3H]-α-methylhistamine displacement on SK-N-MC cell membranes. Conditions: cloned human H3 receptor in SK-N-MC cell membranes; 0.8 nM N-[3H]-α-methylhistamine; 60 min at 25° C.

Another assay deals with T2, human SERT (Homo sapiens, UniProt P31645).
T2 construct: expressed in transfected cells; host or cells: HEK293
Put plainly: Human SERT binding, 3H-citalopram displacement on HEK293 membranes. Conditions: HEK293 membranes expressing the human SERT, rt for 1 h. On the procedure: Homogenized HEK293 (Human Embryonic Kidney) membranes expressing the human SERT were incubated with ^3H-citalopram (SERT) at rt for 1 h in 50 mM Tris, 120 mM NaCl, 5 mM KCl (pH 7.4). […] The membranes were washed and the radioactivity was counted as above.

The target of assay [2] is T1, human H3 receptor. Put plainly: Cyclic AMP accumulation, β-galactosidase reporter in SK-N-MC cells. In kind it is cell-based. On the procedure:
Sublines of SK-N-MC cells were created that expressed a reporter construct and the human H3 receptor. The reporter gene (β-galactosidase) is under the control of multiple cyclic AMP responsive elements. In 96-well plates, histamine was added directly to the cell media followed 5 min later by an addition of forskolin (5 μM final concentration). When appropriate, antagonists were added 10 min prior to agonist addition. After a 6-h incubation at 37° C., the media was aspirated and the cells washed with 200 μL of phosphate-buffered saline followed by a second aspiration. Cells were lysed with 25 μL 0.1× assay buffer (10 mM Na-phosphate, pH 8, 0.2 mM MgSO4, 0.01 mM MnCl2) and incubated at rt for 10 min. Cells were then incubated for 10 min with 100 μL of 1× assay buffer containing 0.5% Triton and 40 mM β-mercaptoethanol. Color was developed using 25 μL of 1 mg/mL substrate solution (chlorophenolred β-D galactopyranoside; Roche Molecular Biochemicals, Indianapolis, Ind.) Color was quantitated on a microplate reader at absorbance 570 nm.

For the next assay, the target named is Rat SERT (Rattus norvegicus, UniProt P31652). Put plainly: Rat brain SERT binding, [3H]-Citalopram displacement on rat brain membranes.
The mark [3] stands for this setting: Rat SERT Ki (nM), rat brain membranes without cerebellum, 0.6 nM [3H]-Citalopram, 60 min at 25° C.

For orientation: Ki means a measure of affinity in units of concentration, obtained from inhibition or displacement. Read a low Ki as a stronger hold on the target.

Counter-ions that a name gives are not always drawn. Like-named read-outs stand apart in the source and are kept apart here.

Sequence of Rat SERT (P31652 whole entry): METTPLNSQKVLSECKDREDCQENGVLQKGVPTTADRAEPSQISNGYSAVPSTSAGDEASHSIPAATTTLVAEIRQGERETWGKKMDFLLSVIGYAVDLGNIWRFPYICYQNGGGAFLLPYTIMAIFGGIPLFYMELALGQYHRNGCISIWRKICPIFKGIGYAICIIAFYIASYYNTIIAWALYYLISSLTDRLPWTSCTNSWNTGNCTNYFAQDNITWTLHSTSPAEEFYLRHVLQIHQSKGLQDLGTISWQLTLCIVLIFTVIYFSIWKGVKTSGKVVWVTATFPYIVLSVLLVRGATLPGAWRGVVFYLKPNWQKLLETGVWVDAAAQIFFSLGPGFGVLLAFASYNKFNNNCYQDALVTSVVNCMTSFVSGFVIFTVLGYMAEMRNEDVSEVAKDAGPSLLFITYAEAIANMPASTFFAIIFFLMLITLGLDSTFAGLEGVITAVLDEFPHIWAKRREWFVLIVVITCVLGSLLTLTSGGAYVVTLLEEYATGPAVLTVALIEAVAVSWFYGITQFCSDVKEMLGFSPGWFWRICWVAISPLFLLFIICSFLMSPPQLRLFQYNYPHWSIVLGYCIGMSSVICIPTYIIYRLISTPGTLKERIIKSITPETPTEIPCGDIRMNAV
T2 sequence (P31645 whole entry): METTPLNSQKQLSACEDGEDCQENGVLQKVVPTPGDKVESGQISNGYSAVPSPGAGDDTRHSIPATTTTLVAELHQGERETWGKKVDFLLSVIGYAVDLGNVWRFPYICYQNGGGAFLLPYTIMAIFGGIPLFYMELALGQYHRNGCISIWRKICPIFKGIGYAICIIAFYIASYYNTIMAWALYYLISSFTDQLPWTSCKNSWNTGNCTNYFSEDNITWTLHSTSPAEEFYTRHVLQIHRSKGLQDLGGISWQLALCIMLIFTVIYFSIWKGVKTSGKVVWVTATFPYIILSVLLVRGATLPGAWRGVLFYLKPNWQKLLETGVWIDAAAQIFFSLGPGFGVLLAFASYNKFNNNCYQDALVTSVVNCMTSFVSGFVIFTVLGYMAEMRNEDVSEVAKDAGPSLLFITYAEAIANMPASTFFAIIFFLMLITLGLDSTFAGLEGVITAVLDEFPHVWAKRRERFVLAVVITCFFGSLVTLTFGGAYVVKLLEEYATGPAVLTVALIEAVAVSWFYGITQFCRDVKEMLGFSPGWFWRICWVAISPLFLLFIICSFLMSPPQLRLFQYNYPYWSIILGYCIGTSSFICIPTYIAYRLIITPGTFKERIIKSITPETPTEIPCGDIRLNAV
T1 sequence (Q9Y5N1 whole entry): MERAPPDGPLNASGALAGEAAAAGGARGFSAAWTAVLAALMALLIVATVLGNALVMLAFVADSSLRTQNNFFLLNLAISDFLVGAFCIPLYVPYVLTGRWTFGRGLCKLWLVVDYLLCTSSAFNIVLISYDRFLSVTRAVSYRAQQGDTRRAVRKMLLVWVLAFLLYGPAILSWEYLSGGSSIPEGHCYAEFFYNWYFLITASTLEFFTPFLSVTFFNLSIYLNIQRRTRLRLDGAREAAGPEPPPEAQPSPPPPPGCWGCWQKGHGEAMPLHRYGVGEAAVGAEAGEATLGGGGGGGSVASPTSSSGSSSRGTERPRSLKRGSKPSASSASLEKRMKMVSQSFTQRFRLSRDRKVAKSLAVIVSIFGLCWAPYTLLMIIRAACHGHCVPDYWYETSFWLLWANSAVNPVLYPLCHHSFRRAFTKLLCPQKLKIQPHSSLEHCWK
Protocol for Rat SERT: The supernatant was removed and re-centrifuged at 15,000 rpm for 30 min. […] Membranes were incubated with 0.6 nM [^3H]-Citalopram plus/minus test compounds for 60 min at 25° C. and harvested by rapid filtration over GF/C glass fiber filters (pretreated with 0.3% polyethylenimine) followed by four washes with ice-cold buffer.

Take `CN1Cc2cc(OCCCN3CCCCC3)ncc2C(c2ccc(Cl)c(Cl)c2)C1` (racemic) [Example 16, 4-(3,4-Dichloro-phenyl)-2-methyl-7-(3-piperidin-1-yl-propoxy)-1,2,3,4-tetrahydro-[2,6]-naphthyridine]: the Ki on human H3 receptor [1] was found to be 0.018 µM; on human SERT, 0.12 µM. This compound gave a Kb on human H3 receptor [2] of 0.02 µM.
Take `Fc1ccccc1C1CNCc2cc(OCCCN3CCCCC3)ncc21` (centres unmarked) [Example 1, 4-(2-Fluoro-phenyl)-7-(3-piperidin-1-yl-propoxy)-1,2,3,4-tetrahydro-[2,6]naphthyridine]: the Ki on human H3 receptor [1] turned out to be 0.001 µM; at Rat SERT, 1000 nM. The Kb on human H3 receptor [2] (read-out: pA2 (converted)) is 0.000794 µM.
With `CCN(CC)CCCOc1cc2c(cn1)C(c1ccccc1)CNC2` (centres unmarked) [Example 5, Diethyl-[3-(8-phenyl-5,6,7,8-tetrahydro-[2,6]naphthyridin-3-yloxy)-propyl]-amine], the inhibition constant (Ki) worked out at 0.001 µM on human H3 receptor [1] and 1200 nM on Rat SERT (setting [3]). Besides, the Kb at human H3 receptor [2] (read-out: pA2 (converted)) was 0.002 µM.
Turning to `COc1cccc(C2CNCc3cc(OCCCN4CCCCC4)ncc32)c1` (centres unmarked) [Example 13, 4-(3-Methoxy-phenyl)-7-(3-piperidin-1-yl-propoxy)-1,2,3,4-tetrahydro-[2,6]-naphthyridine], the values for the Ki on human H3 receptor [1] and on Rat SERT were 0.001 µM and 179 nM, respectively. In addition, at human H3 receptor [2] (read-out: pA2 (converted)), the Kb is 0.001 µM.
As to `Clc1cccc(C2CNCc3cc(OCCCN4CCCCC4)ncc32)c1` (centres unmarked) [Example 24, 4-(3-Chloro-phenyl)-7-(3-piperidin-1-yl-propoxy)-1,2,3,4-tetrahydro-[2,6]naphthyridine], the Ki turned out to be 0.002 µM on human H3 receptor [1] and 269 nM on Rat SERT (setting [3]). Moreover, the Kb at human H3 receptor [2] (read-out: pA2 (converted)) was 0.00251 µM.
On to `Fc1cccc(C2CNCc3cc(OCCCN4CCCCC4)ncc32)c1` (centres unmarked) [Example 32, 4-(3-Fluoro-phenyl)-7-(3-piperidin-1-yl-propoxy)-1,2,3,4-tetrahydro-[2,6]naphthyridine], for which the Ki at human H3 receptor [1] worked out at 0.002 µM; on Rat SERT, 2000 nM. In addition, the Kb on human H3 receptor [2] (read-out: pA2 (converted)) was 0.00251 µM.
As for `Fc1ccc(C2CNCc3cc(OCCCN4CCCCC4)ncc32)cc1Cl` (centres unmarked) [Example 33, 4-(3-Chloro-4-fluoro-phenyl)-7-(3-piperidin-1-yl-propoxy)-1,2,3,4-tetrahydro-[2,6]naphthyridine], the Ki at human H3 receptor [1] was found to be 0.001 µM; on Rat SERT, 142 nM. Besides, the Kb at human H3 receptor [2] (read-out: pA2 (converted)) is 0.00316 µM.
With `CN1Cc2cc(OCCCN3CCCCC3)ncc2C(c2cccc(F)c2)C1` (centres unmarked) [Example 34, 4-(3-Fluoro-phenyl)-2-methyl-7-(3-piperidin-1-yl-propoxy)-1,2,3,4-tetrahydro-[2,6]-naphthyridine], the results for the inhibition constant (Ki) on human H3 receptor [1] and at Rat SERT were 0.002 µM and 186 nM, respectively. Moreover, the Kb on human H3 receptor [2] (read-out: pA2 (converted)) is 0.001 µM.
`c1ccc(C2CNCc3cc(OCCCN4CCOCC4)ncc32)cc1` (centres unmarked) [Example 47, 7-(3-Morpholin-4-yl-propoxy)-4-phenyl-1,2,3,4-tetrahydro-[2,6]naphthyridine] displayed a Ki on human H3 receptor [1] of 0.011 µM. The compound also showed a Kb on human H3 receptor [2] of 0.0126 µM.
Consider `COc1ccc(C2CN(C)Cc3cc(CCCCN4CCCCC4)cnc32)cc1` (centres unmarked) [Example 49, 8-(4-Methoxy-phenyl)-6-methyl-3-(4-piperidin-1-yl-butyl)-5,6,7,8-tetrahydro-[1,6]-naphthyridine trifluoroacetic acid salt], for which the Ki stood at 0.078 µM at human H3 receptor [1], 2 µM on human SERT and 623 nM on Rat SERT.
For `COc1ccc(C2CN(C)Cc3nc(OCCCN4CCCCC4)ccc32)cc1` (centres unmarked) [Example 50, 5-(4-Methoxy-phenyl)-7-methyl-2-(3-piperidin-1-yl-propoxy)-5,6,7,8-tetrahydro-[1,7]naphthyridine], in that order: 0.001 µM, 0.007 µM and 4 nM.
In the case of `COc1ccc(C2CN(C)Cc3nc(C#CCCN4CCCCC4)ccc32)cc1` (centres unmarked) [Example 51, 5-(4-Methoxy-phenyl)-7-methyl-2-(4-piperidin-1-yl-but-1-ynyl)-5,6,7,8-tetrahydro-[1,7]naphthyridine], the Ki at human H3 receptor [1] came to 0.011 µM; at human SERT it was 0.032 µM; at Rat SERT, 21 nM.
